From PubChem BioAssay AID330 (DTP/NCI, 2004) come the findings set out here.

“And” between values parts separate entries of the source, which are not always exact repeats. Equal entries are not always repeated. Toxic doses and inconclusive results are not listed.

The test system of this assay is P388 leukemia ip, CD2F1 mice, survival T/C. Briefly: NCI In Vivo Anticancer Drug Screen. Data for tumor model P388 Leukemia (intraperitoneal) in CD2F1 (CDF1) mice. The following applies: endpoint: median survival time, higher = longer survival. In a few lines: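 Mice carrying the transplanted tumor received test compound or vehicle. Survival was recorded in each group, and the value is the treated-group measurement divided by that of the vehicle-treated control group.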

[1] abbreviates: dose: 60.0 mg/kg/injection, schedule: Q01DX005 (ip), vehicle: saline with Tween-80.
Where [2] appears, read: dose: 120.0 mg/kg/injection, schedule: Q01DX005 (ip), vehicle: saline with Tween-80.
The mark [3] stands for this setting: dose: 240.0 mg/kg/injection, schedule: Q01DX005 (ip), vehicle: saline with Tween-80.
The mark [4] stands for this setting: dose: 50.0 mg/kg/injection, schedule: Q01DX005 (ip), vehicle: saline with Tween-80.
Setting [5] is: dose: 100.0 mg/kg/injection, schedule: Q01DX005 (ip), vehicle: saline with Tween-80.
Setting [6] is: dose: 200.0 mg/kg/injection, schedule: Q01DX005 (ip), vehicle: saline with Tween-80.
[7] abbreviates: dose: 100.0 mg/kg/injection, schedule: Q04DX002 (ip), vehicle: saline with Tween-80.
Setting [8] is: dose: 200.0 mg/kg/injection, schedule: Q04DX002 (ip), vehicle: saline with Tween-80.
Setting [9] is: dose: 12.5 mg/kg/injection, schedule: Q01DX009 (ip), vehicle: Klucel (hydroxypropylcellulose) (HPC).
Setting [10] is: dose: 400.0 mg/kg/injection, schedule: Q04DX002 (ip), vehicle: saline with Tween-80.

Take `c1cc2cc(C3=NCCN3)[nH]c2cc1C1=NCCN1`: the T/C was 98 % of control (dose: 12.5 mg/kg/injection, schedule: Q01DX005 (ip), vehicle: saline); 103 % of control (dose: 25.0 mg/kg/injection, schedule: Q01DX005 (ip), vehicle: saline); 99 % of control (dose: 50.0 mg/kg/injection, schedule: Q01DX005 (ip), vehicle: saline).
As to `COC(=O)Nc1nc2ccc(C3c4c(n[nH]c4C)CC(C)(O)C3C(C)=O)cc2[nH]1` (centres undefined), the T/C is, setting by setting: under setting [1], 98 % of control; under setting [2], 101 % of control; under setting [3], 101 % of control.
As for `O=c1c2oc3ccccc3c2cnn1CO`, the T/C runs as follows: (dose: 12.5 mg/kg/injection, schedule: Q01DX009 (ip), vehicle: saline with Tween-80) 103 % of control and 97 % of control; (dose: 25.0 mg/kg/injection, schedule: Q01DX009 (ip), vehicle: saline with Tween-80) 100 % of control and 105 % of control; (dose: 50.0 mg/kg/injection, schedule: Q01DX009 (ip), vehicle: saline with Tween-80) 102 % of control and 108 % of control; (dose: 100.0 mg/kg/injection, schedule: Q01DX009 (ip), vehicle: saline with Tween-80) 105 % of control and 117 % of control.
Regarding `CN1N=Nc2ccccc2NC1=O`, the T/C reads like this: under setting [4], 96 % of control; under setting [5], 99 % of control; under setting [6], 91 % of control.
With `N#Cc1c(=O)n(CCO)nc2c3ccccc3c3ccccc3c12`, the T/C was 97 % of control under setting [7] and 88 % of control under setting [8].
Take `CC1=C(C(=O)Nc2cc(O)ccc2O)C(c2cccc([N+](=O)[O-])c2)C(C(=O)Nc2cc(O)ccc2O)=C(C)N1`: the T/C (dose: 7.5 mg/kg/injection, schedule: Q01DX005 (ip), vehicle: Klucel (hydroxypropylcellulose) (HPC)) is 98 % of control; the T/C (dose: 15.0 mg/kg/injection, schedule: Q01DX005 (ip), vehicle: Klucel (hydroxypropylcellulose) (HPC)) was 93 % of control; the T/C (dose: 30.0 mg/kg/injection, schedule: Q01DX005 (ip), vehicle: Klucel (hydroxypropylcellulose) (HPC)) was 100 % of control.
As to `C1=CCC23CCCCC2(C1)CN(/N=N/N1CC24CC=CCC2(CCCC4)C1)C3` (centres undefined), the T/C (dose: 6.25 mg/kg/injection, schedule: Q01DX009 (ip), vehicle: Klucel (hydroxypropylcellulose) (HPC)) was 87 % of control and the T/C under setting [9] is 86 % of control.
With `C=C(C)C(O)C#CCO[Si](c1ccccc1)(c1ccccc1)C(C)(C)C` (centres undefined), the T/C is, setting by setting: under setting [1], 95 % of control; under setting [2], 97 % of control; under setting [3], 98 % of control.
For `CN1CCN(c2c(C(=O)Nc3ccc([N+](=O)[O-])cc3)cc([N+](=O)[O-])cc2[N+](=O)[O-])CC1`, the T/C by setting is: under setting [1], 92 % of control; under setting [2], 90 % of control.
As for `CC(=O)OCc1cc(=O)n(C)c2c3c4c(cc12)c(C)cc(=O)n4CO3`, the T/C under setting [9] was 123 % of control; the T/C (dose: 25.0 mg/kg/injection, schedule: Q03HX015 (ip), vehicle: Klucel (hydroxypropylcellulose) (HPC)) is 173 % of control; the T/C (dose: 25.0 mg/kg/injection, schedule: Q04DX002 (ip), vehicle: Klucel (hydroxypropylcellulose) (HPC)) is 121 % of control; the T/C (dose: 25.0 mg/kg/injection, schedule: Q06HX010 (ip), vehicle: Klucel (hydroxypropylcellulose) (HPC)) was 152 % of control; the T/C (dose: 50.0 mg/kg/injection, schedule: Q01DX001 (ip), vehicle: Klucel (hydroxypropylcellulose) (HPC)) was 119 % of control and 124 % of control; the T/C (dose: 50.0 mg/kg/injection, schedule: Q01DX009 (ip), vehicle: Klucel (hydroxypropylcellulose) (HPC)) was 157 % of control. The T/C was 105 % of control (dose: 50.0 mg/kg/injection, schedule: Q06HX010 (ip), vehicle: Klucel (hydroxypropylcellulose) (HPC)); 86 % of control (dose: 100.0 mg/kg/injection, schedule: Q01DX009 (ip), vehicle: Klucel (hydroxypropylcellulose) (HPC)); 155 % of control (dose: 200.0 mg/kg/injection, schedule: Q01DX001 (ip), vehicle: Klucel (hydroxypropylcellulose) (HPC)); 168 % of control (dose: 200.0 mg/kg/injection, schedule: Q04DX002 (ip), vehicle: Klucel (hydroxypropylcellulose) (HPC)); 157 % of control and 176 % of control (dose: 400.0 mg/kg/injection, schedule: Q01DX001 (ip), vehicle: Klucel (hydroxypropylcellulose) (HPC)); 168 % of control (dose: 800.0 mg/kg/injection, schedule: Q01DX001 (ip), vehicle: Klucel (hydroxypropylcellulose) (HPC)).
Consider `O=c1[nH]c(-c2ccc(O)cc2)cc2ccccc12`, for which the T/C was 99 % of control under setting [7], 100 % of control under setting [8] and 100 % of control under setting [10].
`CCN(CC)CCN1c2ccc(C)cc2Sc2ccc3ccccc3c21`: the T/C (dose: 50.0 mg/kg/injection, schedule: Q01DX005 (ip), vehicle: saline + Tween-80 + alcohol) was 112 % of control; the T/C (dose: 100.0 mg/kg/injection, schedule: Q01DX005 (ip), vehicle: saline + Tween-80 + alcohol) is 102 % of control; the T/C (dose: 200.0 mg/kg/injection, schedule: Q01DX005 (ip), vehicle: saline + Tween-80 + alcohol) is 114 % of control.
With `CC(=O)Oc1cc2c(C)c3ccccc3cc2c2ccccc12`, the T/C is 102 % of control (dose: 75.0 mg/kg/injection, schedule: Q01DX001 (ip), vehicle: Klucel (hydroxypropylcellulose) (HPC)); 102 % of control (dose: 150.0 mg/kg/injection, schedule: Q01DX001 (ip), vehicle: Klucel (hydroxypropylcellulose) (HPC)); 100 % of control (dose: 300.0 mg/kg/injection, schedule: Q01DX001 (ip), vehicle: Klucel (hydroxypropylcellulose) (HPC)).
Regarding `CCCCCCCCCCN1CCC(N2CCCCC2)CC1`, the T/C is 98 % of control (dose: 12.5 mg/kg/injection, schedule: Q01DX009 (ip), vehicle: saline); 100 % of control (dose: 25.0 mg/kg/injection, schedule: Q01DX009 (ip), vehicle: saline); 99 % of control (dose: 50.0 mg/kg/injection, schedule: Q01DX009 (ip), vehicle: saline); 93 % of control (dose: 100.0 mg/kg/injection, schedule: Q01DX009 (ip), vehicle: saline).
As to `COC(=O)c1oc2c(c1C(=O)OC)c1ccccc1n2C(C)=O`, the T/C reads like this: under setting [7], 102 % of control; under setting [8], 105 % of control; under setting [10], 100 % of control.
Regarding `Cc1ccc(N2C(=O)C(C)SC23C(=O)Nc2ccc(Cl)cc23)cc1` (centres undefined), the T/C is 91 % of control under setting [1], 96 % of control under setting [2] and 100 % of control under setting [3].
With `O=c1cc(O)nc2nc(-c3ccccc3)c(-c3ccccc3)nn12`, the T/C (dose: 50.0 mg/kg/injection, schedule: Q01DX005 (ip), vehicle: Klucel (hydroxypropylcellulose) (HPC)) is 101 % of control; the T/C (dose: 100.0 mg/kg/injection, schedule: Q01DX005 (ip), vehicle: Klucel (hydroxypropylcellulose) (HPC)) was 93 % of control; the T/C (dose: 200.0 mg/kg/injection, schedule: Q01DX005 (ip), vehicle: Klucel (hydroxypropylcellulose) (HPC)) was 93 % of control.
In the case of `CC1(C)O[Te]2(OC1(C)C)OC(C)(C)C(C)(C)O2`, the T/C (dose: 3.12 mg/kg/injection, schedule: Q01DX001 (ip), vehicle: saline with Tween-80) was 100 % of control; the T/C (dose: 6.25 mg/kg/injection, schedule: Q01DX001 (ip), vehicle: saline with Tween-80) was 105 % of control; the T/C (dose: 100.0 mg/kg/injection, schedule: Q01DX001 (ip), vehicle: saline with Tween-80) is 93 % of control.
On to `COC(F)C(C)=O` (centres undefined), for which the T/C runs as follows: (dose: 100.0 mg/kg/injection, schedule: Q01DX001 (ip), vehicle: other) 103 % of control; (dose: 200.0 mg/kg/injection, schedule: Q01DX001 (ip), vehicle: other) 101 % of control; (dose: 400.0 mg/kg/injection, schedule: Q01DX001 (ip), vehicle: other) 112 % of control.
In the case of `C=CCOc1cc2c(cc1C(C)c1ccc(OC)c(C)c1)OCO2` (centres undefined), the T/C reads like this: under setting [4], 100 % of control; under setting [5], 95 % of control; under setting [6], 120 % of control.
For the compound `CCC1CC(C(=O)O)CC(=O)N1` (centres undefined), the T/C runs as follows: (dose: 17.5 mg/kg/injection, schedule: Q01DX005 (ip), vehicle: Klucel (hydroxypropylcellulose) (HPC)) 92 % of control; (dose: 35.0 mg/kg/injection, schedule: Q01DX005 (ip), vehicle: Klucel (hydroxypropylcellulose) (HPC)) 90 % of control; (dose: 70.0 mg/kg/injection, schedule: Q01DX005 (ip), vehicle: Klucel (hydroxypropylcellulose) (HPC)) 97 % of control.
Take `O=C1COCC(=O)OCCOCCSCCOCCO1`: the T/C was 102 % of control (dose: 100.0 mg/kg/injection, schedule: Q04DX003 (ip), vehicle: Klucel (hydroxypropylcellulose) (HPC)); 102 % of control (dose: 200.0 mg/kg/injection, schedule: Q04DX003 (ip), vehicle: Klucel (hydroxypropylcellulose) (HPC)); 100 % of control (dose: 400.0 mg/kg/injection, schedule: Q04DX003 (ip), vehicle: Klucel (hydroxypropylcellulose) (HPC)).
